Values of other authors, collected in patent US20220079925A1, “COMPOSITIONS COMPRISING TACROLIMUS FOR THE TREATMENT OF INTRAOCULAR INFLAMMATORY EYE DISEASES” (NOVALIQ GMBH, priority 2016, published 2022).

Key:
[1] = topical administration
T-lymphocyte = conditions: inhibiting T-lymphocyte signal transduction and cell proliferation

## C=CC[C@@H]1/C=C(\C)C[C@H](C)C[C@H](OC)[C@H]2O[C@@](O)(C(=O)C(=O)N3CCCC[C@H]3C(=O)O[C@H](/C(C)=C/[C@@H]3CC[C@@H](O)[C@H](OC)C3)[C@H](C)[C@@H](O)CC1=O)[C@H](C)C[C@@H]2OC [Tacrolimus]
[1]
  ability to penetrate tissue barrier: poor
T-lymphocyte
  potency relative to cyclosporine: 100 times
